Test results as given in article PMC8286840, “Identifying SARS-CoV-2 antiviral compounds by screening for small molecule inhibitors of Nsp3 papain-like protease” (Biochemical Journal, 2021).
Where a name gives a salt, the structure may show the parent alone. Read-outs that look alike come from different tables or passages of the source.

Columns and labels:
[1] = molecular target: T1, SARS-CoV-2 PLpro (nsp3 1564–1878) (Severe acute respiratory syndrome coronavirus 2, UniProt P0DTD1); assay: biochemical; parameters: FRET-quenched peptide (Pro3) cleavage by PLpro, 10 min pre-incubation, slope over 20 min, normalised to no-compound control; conditions: low concentration screen, read-out: % of control remaining
[2] = molecular target: T1, SARS-CoV-2 PLpro (nsp3 1564–1878); assay: biochemical; parameters: FRET-quenched peptide (Pro3) cleavage by PLpro, 10 min pre-incubation, slope over 20 min, normalised to no-compound control; conditions: high concentration screen, read-out: % of control remaining

O=C(/C=C/c1ccc(O)cc1)CC(=O)/C=C/c1ccc(O)cc1 [bis-demethoxycurcumin]
remaining activity at 1.25 µM ([1]; Well no.=4089): 98.7% | remaining activity at 3.75 µM ([2]; Well no.=4089): 101%

CC(C)[C@@]1(O)[C@@H](OC(=O)c2ccc[nH]2)[C@@]2(O)[C@@]3(C)C[C@]4(O)O[C@@]5([C@H](O)[C@@H](C)CC[C@]35O)[C@@]2(O)[C@@]14C [Ryanodine]
remaining activity at 1.25 µM ([1]; Well no.=3583): 104% | remaining activity at 3.75 µM ([2]; Well no.=3583): 105%

CCCCC(C#N)(Cn1cncn1)c1ccc(Cl)cc1 (stereo not shown) [Myclobutanil]
remaining activity at 1.25 µM ([1]; Well no.=2001): 105% | remaining activity at 3.75 µM ([2]; Well no.=2001): 102%

CCCCc1ccc(NS(=O)(=O)c2ccc(F)cc2)cc1 [DC260126]
remaining activity at 1.25 µM ([1]; Well no.=6272): 94.7% | remaining activity at 3.75 µM ([2]; Well no.=6272): 94.3%

CC/C=C\C/C=C\C/C=C\CCCCCCCC(=O)O [Linolenic acid]
remaining activity at 1.25 µM ([1]; Well no.=4305): 103% | remaining activity at 1.25 µM ([1]; Well no.=4358): 101% | remaining activity at 3.75 µM ([2]; Well no.=4305): 102% | remaining activity at 3.75 µM ([2]; Well no.=4358): 100%

COc1ccc(Cl)cc1C(=O)NCCc1ccc(S(=O)(=O)NC(=O)NC2CCCCC2)cc1 [Glyburide]
remaining activity at 1.25 µM ([1]; Well no.=1806): 96.5% | remaining activity at 3.75 µM ([2]; Well no.=1806): 97.3%

CC1(NC(=O)CBr)CCC(C(C)(C)NCC(O)COc2cccc3[nH]ccc23)CC1 (racemic)
remaining activity at 1.25 µM ([1]; Well no.=1215): 99.4% | remaining activity at 3.75 µM ([2]; Well no.=1215): 102%

CN1C(=O)c2sccc2N(C)c2nc(Nc3ccc(S(N)(=O)=O)cc3)ncc21 [XMU-MP-1]
remaining activity at 1.25 µM ([1]; Well no.=8268): 97% | remaining activity at 3.75 µM ([2]; Well no.=8268): 91.6%

C[C@@H](OC[C@@]1(c2ccccc2)CC[C@]2(CCC(=O)N2)CN1)c1cc(C(F)(F)F)cc(C(F)(F)F)c1 [Rolapitant]
remaining activity at 1.25 µM ([1]; Well no.=7469): 104% | remaining activity at 3.75 µM ([2]; Well no.=7469): 96.2%

O=C(O)c1cc2cc(F)ccc2[nH]1 [5-Fluoroindole-2-carboxylic acid]
remaining activity at 1.25 µM ([1]; Well no.=339): 99.4% | remaining activity at 3.75 µM ([2]; Well no.=339): 97.9%

C[C@@H]1O[C@@H](OC[C@H]2O[C@@H](Oc3cc(O)c4c(=O)cc(-c5ccc(O)cc5)oc4c3)[C@H](O)[C@@H](O)[C@@H]2O)[C@H](O)[C@H](O)[C@H]1O [Isorhoifolin]
remaining activity at 1.25 µM ([1]; Well no.=3297): 99.4% | remaining activity at 3.75 µM ([2]; Well no.=3297): 104%

CC(O)(CS(=O)(=O)c1ccc(F)cc1)C(=O)Nc1ccc(C#N)c(C(F)(F)F)c1 (stereo not shown) [Bicalutamide]
remaining activity at 1.25 µM ([1]; Well no.=1860): 97.5% | remaining activity at 3.75 µM ([2]; Well no.=1860): 99.2%

CCc1ccc(Cc2ccc3c(c2)[C@]2(OC3)O[C@H](CO)[C@@H](O)[C@H](O)[C@H]2O)cc1 [Tofogliflozin(CSG 452)]
remaining activity at 1.25 µM ([1]; Well no.=8776): 101% | remaining activity at 3.75 µM ([2]; Well no.=8776): 102%

CC(=O)N[C@@H](CCCN)C(=O)O [N-Acetylornithine]
remaining activity at 1.25 µM ([1]; Well no.=7731): 102% | remaining activity at 1.25 µM ([1]; Well no.=8748): 99.4% | remaining activity at 3.75 µM ([2]; Well no.=7731): 104% | remaining activity at 3.75 µM ([2]; Well no.=8748): 98.7%

O=C(NCC1CCOCC1)c1cnc(Nc2ccc(Cl)cc2Cl)nc1C(F)(F)F [GW842166X]
remaining activity at 1.25 µM ([1]; Well no.=5085): 97.9% | remaining activity at 3.75 µM ([2]; Well no.=5085): 100%

CCOc1ccc(Cc2cc([C@@H]3O[C@H](SC)[C@@H](O)[C@H](O)[C@H]3O)ccc2Cl)cc1 [Sotagliflozin (LX4211)]
remaining activity at 1.25 µM ([1]; Well no.=8820): 97.4% | remaining activity at 3.75 µM ([2]; Well no.=8820): 95.6%

N=C(N)N1CCc2ccccc2C1 [Debrisoquin sulfate]
remaining activity at 1.25 µM ([1]; Well no.=397): 103% | remaining activity at 3.75 µM ([2]; Well no.=397): 104%

CCCC[C@H](N)C(=O)O [L-Norleucine]
remaining activity at 1.25 µM ([1]; Well no.=7733): 103% | remaining activity at 3.75 µM ([2]; Well no.=7733): 106%

N[C@@H](Cc1c[nH]cn1)C(=O)O [L-Histidine hydrochloride]
remaining activity at 1.25 µM ([1]; Well no.=422): 92.7% | remaining activity at 3.75 µM ([2]; Well no.=422): 94.7%

CNC[C@H](O)[C@@H](O)[C@H](O)[C@H](O)CO [Meglumine]
remaining activity at 1.25 µM ([1]; Well no.=1565): 104% | remaining activity at 3.75 µM ([2]; Well no.=1565): 104%

Cc1ccc(Nc2nccc(N(C)c3ccc4c(C)n(C)nc4c3)n2)cc1S(N)(=O)=O [Pazopanib]
remaining activity at 1.25 µM ([1]; Well no.=2841): 103% | remaining activity at 3.75 µM ([2]; Well no.=2841): 103%

CCCCCCCCCCCCCCCCCC(=O)O [Octadecanoic acid]
remaining activity at 1.25 µM ([1]; Well no.=4314): 101% | remaining activity at 3.75 µM ([2]; Well no.=4314): 96.8%

CN(C)CCN1C(=O)c2cccc3cc(N)cc(c23)C1=O [Amonafide]
remaining activity at 1.25 µM ([1]; Well no.=5195): 96.9% | remaining activity at 3.75 µM ([2]; Well no.=5195): 96.7%

CC1CNCCN1S(=O)(=O)c1cccc2cnccc12 (stereo not shown) [H-7 dihydrochloride]
remaining activity at 1.25 µM ([1]; Well no.=570): 95.5% | remaining activity at 3.75 µM ([2]; Well no.=570): 95.4%

CC(=O)OCC(=O)[C@@]1(O)CC[C@H]2[C@@H]3CCC4=CC(=O)CC[C@]4(C)[C@H]3[C@@H](O)C[C@@]21C [Hydrocortisone 21-acetate]
remaining activity at 1.25 µM ([1]; Well no.=2214): 100% | remaining activity at 3.75 µM ([2]; Well no.=2214): 101%

NCC(=O)N1C[C@H](NC(=O)c2ccccc2)C[C@H]1C(=O)O [Danegaptide Hydrochloride]
remaining activity at 1.25 µM ([1]; Well no.=8026): 98.8% | remaining activity at 3.75 µM ([2]; Well no.=8026): 100%

CCCCOCCOc1ccc(-c2ccc3c(c2)/C=C(/C(=O)Nc2ccc([S@@+]([O-])Cc4cncn4CCC)cc2)CCCN3CC(C)C)cc1 [Cenicriviroc Mesylate]
remaining activity at 1.25 µM ([1]; Well no.=8311): 99.4% | remaining activity at 3.75 µM ([2]; Well no.=8311): 99.6%

CC1=C(/C=C/C(C)=C/C=C/C(C)=C\C(=O)O)C(C)(C)CCC1 [13-cis Retinoic acid]
remaining activity at 1.25 µM ([1]; Well no.=3134): 98.4% | remaining activity at 1.25 µM ([1]; Well no.=4430): 95.1% | remaining activity at 3.75 µM ([2]; Well no.=3134): 98.9% | remaining activity at 3.75 µM ([2]; Well no.=4430): 96%

O=C(O)Cc1ccccc1Nc1c(Cl)cccc1Cl [Diclofenac sodium]
remaining activity at 1.25 µM ([1]; Well no.=580): 94% | remaining activity at 3.75 µM ([2]; Well no.=580): 96.6%

CC(C)(Cc1nc(-c2ccc(O)cn2)no1)C(=O)NC1=C(C(=O)O)CCCC1 [MK-6892]
remaining activity at 1.25 µM ([1]; Well no.=7953): 101% | remaining activity at 3.75 µM ([2]; Well no.=7953): 100%

COCCc1ccc(OCC(O)CNC(C)C)cc1 (stereo not shown) [Metoprolol]
remaining activity at 1.25 µM ([1]; Well no.=1959): 102% | remaining activity at 3.75 µM ([2]; Well no.=1959): 102%

O=C(CCc1ccc(O)cc1)c1c(O)cc(O)cc1O [Phloretin]
remaining activity at 1.25 µM ([1]; Well no.=1397): 102% | remaining activity at 1.25 µM ([1]; Well no.=3821): 95.3% | remaining activity at 3.75 µM ([2]; Well no.=1397): 102% | remaining activity at 3.75 µM ([2]; Well no.=3821): 94.8%

CCCCC/C=C\C/C=C\C/C=C\C=C\C1CCCC(=O)O1 (racemic)
remaining activity at 1.25 µM ([1]; Well no.=4277): 105% | remaining activity at 3.75 µM ([2]; Well no.=4277): 102%

O=CC[C@@H](O)[C@H](O)[C@H](O)CO [2-Deoxy-D-glucose]
remaining activity at 1.25 µM ([1]; Well no.=8302): 100% | remaining activity at 3.75 µM ([2]; Well no.=8302): 101%
